Values after ≈ are worked out from the molar mass of the structure shown.
Assays:
[1] = Antioxidant activity assessed as DPPH radical scavenging activity incubated for 30 mins by spectrophotometric analysis; assay type: functional
SH-SY5Y [2] = experiment: Induction of apoptosis in human SH-SY5Y cells assessed as increase in caspase-3 activity at 25 uM incubated for 72 hrs by colorimetric assay relative to control; assay type: functional
SH-SY5Y [3] = experiment: Inhibition of H2O2-induced oxidative stress in human SH-SY5Y cells assessed as residual ROS level at 25 uM incubated for 3 hrs relative to control; assay type: functional
BV-2 [4] = experiment: Anti-inflammatory activity against mouse BV-2 cells assessed as inhibition of LPS-induced NO production pretreated for 2 hrs followed stimulated with LPS for 22 hrs by Griess reaction assay; assay type: functional, cell-based
CNE-2 = experiment: Anticancer activity against human CNE-2 cells assessed as reduction in cell growth; assay type: functional, cell-based
HeLa = experiment: Cytotoxicity against human HeLa cells assessed as reduction in cell viability incubated for 48 hrs by MTT assay; assay type: functional, cell-based
[5] = Inhibition of alpha-glucosidase (unknown origin); set-up: species or system Homo sapiens
Acetylcholinesterase = Acetylcholinesterase (Homo sapiens, UniProt P22303); experiment: Inhibition of AChE (unknown origin)
MCF7 = experiment: Cytotoxicity against human MCF7 cells assessed as reduction in cell viability incubated for 72 hrs by MTT assay; assay type: functional, cell-based; conditions: MCF7, 72 h
RAW264.7 [6] = experiment: Anti-inflammatory activity in mouse RAW264.7 cells assessed as inhibition of LPS-induced NO production pre-incubated for 2 hrs followed by LPS-stimulation for 22 hrs by Griess reaction assay; assay type: functional; set-up: concentration or dose not given beside the values; conditions: time 24 hrs
BV-2 [7] = experiment: Anti-inflammatory activity against mouse BV-2 cells assessed as inhibition of LPS-induced NO production at 10 uM pretreated for 2 hrs followed stimulated with LPS for 22 hrs by Griess reaction assay relative to control; assay type: functional; conditions: time 24 hrs
K562 = experiment: Antiproliferative activity against human K562 cells assessed as reduction in cell viability incubated for 72 hrs by CCK-8 assay; assay type: functional, cell-based; conditions: K562, 72 h
Ebolavirus = experiment: Antiviral activity against Ebola virus; assay type: functional, organism-based; conditions: Orthoebolavirus
HL-60 = experiment: Antiproliferative activity against human HL-60 cells assessed as reduction in cell viability incubated for 72 hrs by MTT assay; assay type: functional, cell-based; conditions: HL-60, 72 h
HepG2 = experiment: Cytotoxicity against human HepG2 cells assessed as reduction in cell viability by MTT assay; assay type: functional, cell-based
HT-29 = experiment: Antiproliferative activity against human HT-29 cells assessed as reduction in cell viability after 72 hrs by MTS assay; assay type: functional, cell-based; conditions: HT-29, 72 h
[8] = Cytotoxicity against human HUVEC cells assessed as reduction in cell growth incubated for 48 hrs by CCK-8 method; assay type: toxicity, cell-based
RAW264.7 [9] = experiment: Antiinflammatory activity in LPS-induced mouse RAW264.7 cells assessed as inhibition of TNFalpha secretion preincubated for 1 hr followed by LPS addition measured for 24 hrs by ELISA method; assay type: functional, cell-based
RAW264.7 [10] = experiment: Antiinflammatory activity in LPS-induced mouse RAW264.7 cells assessed as inhibition of IL-1beta secretion preincubated for 1 hr followed by LPS addition for 24 hrs by ELISA method; assay type: functional, cell-based
RAW264.7 [11] = experiment: Antiinflammatory activity in LPS-induced mouse RAW264.7 cells assessed as inhibition of IL-6 secretion preincubated for 1 hr followed by LPS addition for 24 hrs by ELISA method; assay type: functional, cell-based

Chain of Acetylcholinesterase (P22303 whole entry): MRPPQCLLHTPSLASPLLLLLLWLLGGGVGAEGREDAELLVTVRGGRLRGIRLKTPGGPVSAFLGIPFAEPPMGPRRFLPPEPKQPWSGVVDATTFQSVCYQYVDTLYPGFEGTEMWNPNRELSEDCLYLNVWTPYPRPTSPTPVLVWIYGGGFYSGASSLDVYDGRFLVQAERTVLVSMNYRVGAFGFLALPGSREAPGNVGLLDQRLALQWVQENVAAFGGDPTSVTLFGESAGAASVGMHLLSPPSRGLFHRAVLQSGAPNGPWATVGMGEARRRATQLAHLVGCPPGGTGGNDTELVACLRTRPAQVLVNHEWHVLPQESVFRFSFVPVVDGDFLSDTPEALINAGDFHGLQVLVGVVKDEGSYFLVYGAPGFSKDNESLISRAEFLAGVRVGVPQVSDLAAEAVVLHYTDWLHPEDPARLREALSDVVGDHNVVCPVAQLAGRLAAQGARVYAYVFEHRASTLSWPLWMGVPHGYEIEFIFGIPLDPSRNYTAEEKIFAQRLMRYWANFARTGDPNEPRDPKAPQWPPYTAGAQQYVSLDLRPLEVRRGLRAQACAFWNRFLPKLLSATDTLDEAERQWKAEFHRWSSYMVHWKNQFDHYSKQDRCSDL

COc1cc([C@H]2OC[C@H]3[C@@H]2CO[C@@H]3c2cc(OC)c(O[C@@H](CO)[C@@H](OC)c3ccc(O)c(OC)c3)c(OC)c2)ccc1O
IC50 [1]: 55.8 µM

COc1cc([C@@H](O)[C@@H](CO)Oc2ccc([C@@H](O)[C@H](CO)Oc3c(OC)cc(CCCO)cc3OC)cc2OC)ccc1O
Activity (SH-SY5Y [2]): 77.58%

COc1cc([C@@H](O)[C@@H](CO)Oc2ccc([C@H](O)[C@H](CO)Oc3c(OC)cc([C@H](O)[C@H](O)CO)cc3OC)cc2OC)ccc1O
Activity (SH-SY5Y [3]): 74.78%

COc1cc([C@H]2OC[C@H]3[C@@H]2CO[C@@H]3c2cc(OC)c(OC)c(OC)c2)ccc1O[C@@H](CO)[C@H](O)c1cc(OC)c(OC)c(OC)c1
IC50 (BV-2 [4]): 10.9 µM

COc1cc(CC(CO)C(CO)Cc2ccc(OC(CO)C(O)c3ccc(O)c(OC)c3)c(OC)c2)ccc1O (configuration not stated)
EC50 (CNE-2): 2.4 µg/mL (≈ 4.3 µM)
IC50 (HeLa): 195 µg/mL (≈ 348 µM)

COc1cc(/C=C/C=O)cc2c1O[C@H](c1ccc3c(c1)[C@H](CO)[C@@H](c1ccc(O)cc1)O3)[C@H]2CO
IC50 (BV-2 [4]): 38.9 µM

OC/C=C/c1ccc2c(c1)O[C@H](c1ccc3c(c1)O[C@@H](c1ccc(O)c(O)c1)[C@H](CO)O3)[C@@H](CO)O2
IC50 [5]: 0.62 µM

COc1cc([C@@H]2c3cc(O[C@H](CO)[C@@H](O)c4ccc(O)c(OC)c4)c(OC)cc3C[C@H](CO)[C@@H]2CO)ccc1O
Activity (SH-SY5Y [2]): 79.36%

COc1cc([C@@H](O)[C@@H](CO)Oc2ccc([C@H](O)[C@H](CO)Oc3c(OC)cc([C@H](O)[C@@H](O)CO)cc3OC)cc2OC)ccc1O
Activity (SH-SY5Y [3]): 75.8%

COc1cc([C@@H](O)[C@@H](CO)Oc2ccc([C@@H]3OC[C@@H]4[C@H]3CO[C@H]4c3ccc(O)c(OC)c3)cc2OC)ccc1O
IC50 [5]: 3.05 µM

COc1cc([C@@H](O)[C@@H](CO)Oc2c(OC)cc([C@@H]3Oc4c(OC)cc([C@H](O)[C@@H](O)CO)cc4[C@H]3CO)cc2OC)ccc1O
Activity (SH-SY5Y [3]): 63.72%

COc1cc([C@H]2OC[C@H]3[C@@H]2CO[C@@H]3c2ccc(O[C@H](CO)[C@@H](O)c3ccc(O)c(OC)c3)c(OC)c2)ccc1O
IC50 [5]: 6.73 µM

COc1cc([C@H](OC)[C@@H](CO)Oc2c(OC)cc([C@@H]3Oc4c(OC)cc([C@H](O)[C@@H](O)CO)cc4[C@H]3CO)cc2OC)ccc1O
Activity (SH-SY5Y [3]): 76.21%

CC(Cc1ccc(O)cc1)c1cc([C@H]2O[C@@H](c3ccc(O)c(O)c3)[C@H](C)[C@H]2C)ccc1O (some centres not stated)
IC50 [1]: 1.12 µM

C=CCc1ccc(O)c(-c2cc(CC=C)cc(-c3cc(CC=C)ccc3O)c2O[C@@H]2C[C@@H](C(C)C)C=C[C@]2(C)O)c1
IC50 (Acetylcholinesterase): 6.55 µM

C=CCc1ccc(Oc2cc(CC=C)cc(-c3cc(CC=C)ccc3O)c2O)cc1
IC50 (Acetylcholinesterase): 10 µM

COc1ccc([C@@H]2O[C@H](c3ccc(OC)c(O[C@@H](C)[C@@H](OC)c4ccc(OC)c(O)c4)c3)[C@@H](C)[C@@H]2C)cc1O
IC50 (MCF7): 8.4 µM
Activity (RAW264.7 [6]): 18.1%

COc1cc([C@@H]2c3c(cc(OC)c4c3[C@H](CO)[C@H](c3ccc(O)c(OC)c3)O4)C[C@H](CO)[C@H]2CO)ccc1O
Activity (RAW264.7 [6]): 19.46%

COc1cc([C@H]2OC[C@H]3[C@@H]2CO[C@@H]3c2cc(OC)c3c(c2)[C@H](CO)[C@@H](c2ccc(O)c(OC)c2)O3)ccc1O
inhibition at 10 µM (BV-2 [7]): 50.7%

COc1ccc([C@@H](O)[C@@H](C)Oc2ccc([C@H]3O[C@H](c4ccc5c(c4)OCO5)[C@H](C)[C@H]3C)cc2OC)cc1OC
Activity (RAW264.7 [6]): 2.62%

C=CCc1ccc(O)c(-c2cc(CC=C)cc(-c3cc(CC=C)ccc3O)c2O[C@H]2CC(C)(C)[C@@H]3CC[C@]4(C)C[C@]23CC[C@H]4O)c1
IC50 (Acetylcholinesterase): 4.58 µM

COC[C@H]1c2cc(C[C@@H]3C(=O)OC[C@H]3Cc3ccc(O)c(OC)c3)ccc2O[C@@H]1c1ccc(O)c(OC)c1
Activity (RAW264.7 [6]): 8.59%

COc1cc(C[C@H]2C(=O)OC[C@@H]2Cc2cc(OC)c3c(c2)[C@H](CO)[C@@H](c2ccc(O)c(OC)c2)O3)ccc1O
IC50 (K562): 51.1 µg/mL (≈ 95.2 µM)

COc1cc([C@H](OC)[C@@H](CO)Oc2ccc([C@@H](O)[C@H](CO)Oc3ccc(CCCO)cc3OC)cc2OC)ccc1O
Activity (SH-SY5Y [3]): 74.22%

COc1cc(C[C@H]2COC(=O)[C@@H]2Cc2cc(OC)c3c(c2)[C@H](CO)[C@@H](c2ccc(O)c(OC)c2)O3)ccc1O
IC50 (K562): 53.5 µg/mL (≈ 99.7 µM)

COc1cc([C@@H](O)[C@@H](C)Oc2ccc([C@@H]3O[C@H](c4ccc(O)c(OC)c4)[C@H](C)[C@H]3C)cc2OC)ccc1O
EC50 (Ebolavirus): 6.95 µM

COc1cc(O)cc([C@@H]2c3c(cc(OC)c4c3[C@H](CO)[C@H](c3ccc(O)c(OC)c3)O4)C[C@H](CO)[C@H]2CO)c1
IC50 [5]: 5.17 µM

COc1cc([C@@H](O)[C@@H](C)Oc2ccc([C@H]3O[C@@H](c4ccc(O)c(OC)c4)[C@H](C)[C@H]3C)cc2OC)ccc1O
IC50 (HL-60): 11 µM
IC50 (HepG2): 11 µM
IC50 (MCF7): 9.8 µM
Activity (RAW264.7 [6]): 18.1%

COc1cc([C@H](O)[C@@H](CO)Oc2ccc([C@@H](O)[C@@H](CO)Oc3c(OC)cc(CCCO)cc3OC)cc2OC)ccc1O
Activity (SH-SY5Y [3]): 77.58%

COc1cc([C@@H](O)[C@@H](CO)Oc2c(OC)cc([C@@H]3OC[C@@H]4[C@H]3CO[C@H]4c3cc(OC)c(O)c(OC)c3)cc2OC)ccc1O
IC50 [5]: 15.4 µM

Oc1ccc(/C=C/C[C@@H]2CC(C(O)c3ccc(O)cc3)CO[C@H]2c2ccc(O)cc2)cc1 (some centres not stated)
Activity (RAW264.7 [6]): 33%

COc1cc([C@H]2O[C@H](c3ccc4c(c3)OCO4)[C@H](C)[C@H]2C)ccc1O[C@H](C)[C@H](O)c1ccc2c(c1)OCO2
IC50 (HT-29): 10 µM

COc1cc([C@H]2Oc3c(OC)cc(C[C@H]4C(=O)OC[C@@H]4Cc4ccc(OC)c(OC)c4)cc3[C@@H]2CO)ccc1O
IC50 (K562): 38.5 µg/mL (≈ 69.9 µM)

COCc1c(-c2ccc(O)c(OC)c2)oc2c(OC)cc([C@H]3OC[C@@H]4[C@H]3CO[C@@H]4c3ccc(O)c(OC)c3)cc12
IC50 at 48 h [8]: 32.8 µM

COc1cc(C[C@@H](CO)[C@H](CO)Cc2cc(OC)c3c(c2)[C@H](CO)[C@@H](c2ccc(O)c(OC)c2)O3)ccc1O
EC50 (CNE-2): 2 µg/mL (≈ 3.7 µM)
IC50 (HeLa): 114 µg/mL (≈ 211 µM)

OC[C@@H]1Oc2ccc([C@H]3OC[C@H]4[C@@H]3CO[C@@H]4c3ccc(O)c(O)c3)cc2O[C@H]1c1ccc(O)c(O)c1 [PRINCEPIN]
IC50 (BV-2 [4]): 1.28 µM

CCO[C@@H](c1ccc(O)c(OC)c1)[C@H](CO)Oc1ccc([C@H](O)[C@@H](CO)Oc2ccc(CCCO)cc2OC)cc1OC
Activity (SH-SY5Y [3]): 71.1%

COc1ccc([C@@H](O)[C@@H](C)Oc2ccc([C@H]3O[C@H](c4ccc(OC)c(OC)c4)[C@H](C)[C@H]3C)cc2OC)cc1OC
EC50 (Ebolavirus): 1.7 µM

COc1cc([C@@H](O)[C@H](CO)Oc2ccc([C@H]3OC[C@H]4[C@@H]3CO[C@@H]4c3ccc(O)c(OC)c3)cc2OC)ccc1O
IC50 [5]: 5.17 µM

COc1cc([C@H](O)[C@@H](CO)Oc2c(OC)cc([C@H]3OC[C@H]4[C@@H]3CO[C@@H]4c3cc(OC)c(O)c(OC)c3)cc2OC)ccc1O
IC50 (RAW264.7 [9]): 50.9 µM
IC50 (RAW264.7 [10]): 10.9 µM
IC50 (RAW264.7 [11]): 2.4 µM

C=CCc1ccc2c(c1)O[C@@H](c1ccc(O)c(O)c1)[C@H](Cc1cc(O)c(O)cc1CC=C)O2
Activity (RAW264.7 [6]): 9.87%

COc1cc([C@@H](O)[C@@H](CO)Oc2c(OC)cc([C@@H]3Oc4c(OC)cc([C@H](O)[C@H](O)CO)cc4[C@H]3CO)cc2OC)ccc1O
Activity (SH-SY5Y [3]): 75.63%

COc1cc([C@@H](OC)[C@@H](CO)Oc2c(OC)cc([C@@H]3Oc4c(OC)cc([C@H](O)[C@@H](O)CO)cc4[C@H]3CO)cc2OC)ccc1O
Activity (SH-SY5Y [2]): 90.74%
Activity (SH-SY5Y [3]): 90.74%

COc1cc([C@@H]2c3c(cc(OC)c4c3[C@H](CO)[C@H](c3ccc(O[C@@H]5O[C@H](CO)[C@@H](O)[C@H](O)[C@H]5O)c(OC)c3)O4)C[C@H](CO)[C@H]2CO)ccc1O
Activity (RAW264.7 [6]): 64.82%

COc1cc([C@@H]2c3cc(O[C@H](CO)[C@H](O)c4ccc(O)c(OC)c4)c(OC)cc3C[C@H](CO)[C@H]2CO)ccc1O
Activity (SH-SY5Y [2]): 80.72%

COc1cc([C@H](O)[C@@H](CO)Oc2ccc([C@@H](O)[C@H](CO)Oc3c(OC)cc([C@H](O)[C@@H](O)CO)cc3OC)cc2OC)ccc1O
Activity (SH-SY5Y [3]): 75.9%

COc1ccc([C@@H]2O[C@H](c3ccc(OC)c(O[C@H](C)[C@@H](O)c4ccc(O)c(OC)c4)c3)[C@H](C)[C@H]2C)cc1O
IC50 (MCF7): 8.8 µM
Activity (RAW264.7 [6]): 18.1%

— ChEMBL document CHEMBL6078615, “Sesquilignans: Current research and potential prospective” (Eur J Med Chem, 2024)
